From patent US12528816B2, “Substituted imidazo [1,2-b] pyridazines and [1, 2, 4] triazolo [ 4,3-b] pyridazines as camkii inhibitors” (Cardurion Pharmaceuticals, INC., priority 2020, dated 2026)

These compounds were tested against T1, human CaMKIIδ (Homo sapiens, UniProt Q13557) (assay: Evaluation of in vitro CaMKII inhibitory activity (binding assay, TR-FRET)). Conditions: in vitro CaMKII inhibitory activity (binding assay), human CaMKIIδ; read-out: Act.
T1 construct: Full-length, glutathione-S-transferase(GST)-tagged, human CaMKIIδ was purchased from Carna Biosciences; purchased Carna Biosciences (CaMKIIδ); Wako Pure Chemical Industries (calmodulin) 02-111
Method in brief: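 Inhibitors, in eight concentrations of 4-fold dilution, were incubated 1 h at room temperature with a protein–fluorescent probe premix preformed 30 min on ice, containing calmodulin and terbium anti-GST antibody. Displacement read by TR-FRET in duplicate; IC50 by logistic fitting.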

SMILES	IC50 [nM]
C[C@@H](Cn1cnnn1)Oc1cccc(-c2ccc3ncc(-c4cc(F)cn(C)c4=O)n3n2)c1 [compound 331]	< 10
COc1ncccc1-c1cnc2ccc(-c3cccc(O[C@@H](C)Cn4cnnn4)c3)nn12 [compound 332]	< 10
Cc1cc(-c2cnc3ccc(-c4cccc(O[C@@H](C)Cn5cnnn5)c4)nn23)c(C#N)cn1 [compound 333]	< 10
C[C@@H](Cn1cnnn1)Oc1cccc(-c2ccc3ncc(-c4cc(Cl)cn(C)c4=O)n3n2)c1 [compound 334]	< 10
Cc1cc(-c2cnc3ccc(-c4cccc(O[C@@H](C)Cn5cnnn5)c4)nn23)c(=O)n(C)c1 [compound 335]	< 10
C[C@@H](Cn1cnnn1)Oc1cccc(-c2ccc3ncc(-c4cc(F)cnc4OCC(F)F)n3n2)c1 [compound 336]	< 10
C[C@@H](Cn1cnnn1)Oc1cccc(-c2ccc3ncc(-c4cc(F)cn(CC(F)F)c4=O)n3n2)c1 [compound 337]	< 10
C[C@@H](Cn1cnnn1)Oc1cccc(-c2ccc3ncc(-c4cc(F)cnc4OCC(F)(F)F)n3n2)c1 [compound 338]	< 10
C[C@@H](Cn1cnnn1)Oc1cccc(-c2ccc3ncc(-c4cc(F)cn(CC(F)(F)F)c4=O)n3n2)c1 [compound 339]	< 10
C[C@@H](Cn1cnnn1)Oc1cccc(-c2ccc3ncc(-c4cccn(CC(F)F)c4=O)n3n2)c1 [compound 340]	< 10
C[C@@H](Cn1cnnn1)Oc1cccc(-c2ccc3ncc(-c4cccn(CCOCC(F)(F)F)c4=O)n3n2)c1 [compound 341]	< 10
C[C@@H](Cn1cnnn1)Oc1cc(-c2ccc3ncn(-c4cc(F)ccc4C#N)c3n2)ccn1 [compound 343]	< 10
C[C@@H](Cn1cnnn1)Oc1cccc(-c2ccc3ncc(-c4nccc(OCC(F)(F)F)c4C#N)n3n2)c1 [compound 344]	< 10
C[C@@H](Cn1cnnn1)Oc1ccnc(-c2ccc3ncn(-c4cc(F)ccc4C#N)c3n2)n1 [compound 346]	10 to 100
C[C@@H](Cn1cnnn1)Oc1cccc(-c2ccc3ncc(-c4cc(=O)n(C)cc4C#N)n3n2)c1 [compound 348]	< 10
C[C@@H](Cn1cnnn1)Oc1cccc(-c2ccc3ncc(-c4nc(C(F)(F)F)ccc4C#N)n3n2)c1 [compound 349]	10 to 100
C[C@@H](Cn1cnnn1)Oc1cccc(-c2ccc3ncc(-c4nc(N(C)C)ccc4C#N)n3n2)c1 [compound 350]	10 to 100
COc1cc(-c2cnc3ccc(-c4cccc(O[C@@H](C)Cn5cnnn5)c4)nn23)c(F)cn1 [compound 351]	< 10
C[C@@H](Cn1cnnn1)Oc1cccc(-c2ccc3ncc(-c4nccc(OCC5COC5)c4C#N)n3n2)c1 [compound 352]	< 10
COc1ccnc(-n2cnc3ccc(-c4cccc(O[C@@H](C)Cn5cnnn5)c4)nc32)c1C#N [compound 353]	< 10
COc1ccnc(-n2cnc3ccc(-c4ccc(F)c(O[C@@H](C)Cn5cnnn5)c4)nc32)c1C#N [compound 355]	< 10
C[C@@H](Cn1cnnn1)Oc1cccc(-c2ccc3ncc(-c4nccc(N(C)C)c4C#N)n3n2)c1 [compound 356]	< 10
C[C@@H](Cn1cnnn1)Oc1cc(F)cc(-c2ccc3ncc(-c4cccn(C)c4=O)n3n2)c1 [compound 357]	< 10
C[C@@H](Cn1cnnn1)Oc1cccc(-c2ccc3ncc(-c4cc(F)cnc4OCC#N)n3n2)c1 [compound 359]	< 10
C[C@@H](Cn1cnnn1)Oc1cccc(-c2ccc3ncc(-c4cc(F)cn(CC#N)c4=O)n3n2)c1 [compound 360]	< 10
CNc1ccc(C#N)c(-c2cnc3ccc(-c4cccc(O[C@@H](C)Cn5cnnn5)c4)nn23)n1 [compound 361]	< 10

SMILES	IC50 [nM]
COc1ncc(C#N)c(-c2cnc3ccc(-c4cccc(O[C@@H](C)Cn5cnnn5)c4)nn23)n1 [compound 362]	< 10
C[C@@H](Cn1cnnn1)Oc1cccc(-c2ccc3ncc(-c4nccc(N5CCCC5)c4C#N)n3n2)c1 [compound 363]	10 to 100
C[C@@H](Cn1cnnn1)Oc1cccc(-c2ccc3ncc(-c4[nH]c(=O)ccc4C#N)n3n2)c1 [compound 364]	< 10
CCOc1ncnc(-c2cnc3ccc(-c4cccc(O[C@@H](C)Cn5cnnn5)c4)nn23)c1C#N [compound 365]	< 10
CCOc1ccnc(-c2cnc3ccc(-c4cccc(O[C@@H](C)Cn5cnnn5)c4)nn23)c1C#N [compound 366]	< 10
C[C@@H](Cn1cnnn1)Oc1cccc(-c2ccc3ncc(-c4nccc(NCC(F)F)c4C#N)n3n2)c1 [compound 367]	10 to 100
C[C@@H](Cn1cnnn1)Oc1cc(-c2ccc3ncn(-c4ncccc4C#N)c3n2)ccc1Cl [compound 368]	10 to 100
C[C@@H](Cn1cnnn1)Oc1cccc(-c2ccc3ncc(-c4nccc(NCC(F)(F)F)c4C#N)n3n2)c1 [compound 369]	10 to 100
C[C@@H](Cn1cnnn1)Oc1cccc(-c2ccc3ncc(-c4nccc(N5CCC5)c4C#N)n3n2)c1 [compound 370]	10 to 100
CCc1ccc(C#N)c(-c2cnc3ccc(-c4cccc(O[C@@H](C)Cn5cnnn5)c4)nn23)n1 [compound 371]	< 10
C[C@@H](Cn1cnnn1)Oc1cccc(-c2ccc3ncc(-c4ncnc(N(C)C)c4C#N)n3n2)c1 [compound 372]	10 to 100
C[C@@H](Cn1cnnn1)Oc1cccc(-c2ccc3nnc(-c4ccccc4C#N)n3n2)c1 [compound 373]	> 100
CCOc1ccnc(-n2cnc3ccc(-c4cccc(O[C@@H](C)Cn5cnnn5)c4)nc32)c1C#N [compound 374]	< 10
CCOc1ccnc(-n2cnc3ccc(-c4ccnc(O[C@@H](C)Cn5cnnn5)c4)nc32)c1C#N [compound 375]	10 to 100
C[C@@H](Cn1cnnn1)Oc1cccc(-c2ccc3ncc(-c4nccc(N(C)CC(F)F)c4C#N)n3n2)c1 [compound 376]	10 to 100
COc1ccnc(-c2c(F)nn3ccc(-c4cccc(O[C@@H](C)Cn5cnnn5)c4)nc23)c1C#N [compound 377]	10 to 100
Cc1ccnc(-c2cnc3ccc(-c4cccc(O[C@@H](C)Cn5cnnn5)c4)nn23)c1C#N [compound 378]	< 10
CCc1ccnc(-c2cnc3ccc(-c4cccc(O[C@@H](C)Cn5cnnn5)c4)nn23)c1C#N [compound 380]	< 10
C[C@@H](Cn1cnnn1)Oc1cccc(-c2ccc3ncc(-c4nc[nH]c(=O)c4C#N)n3n2)c1 [compound 381]	< 10
C[C@@H](Cn1cnnn1)Oc1cccc(-c2ccc3ncn(-c4cc(C(F)F)ccc4C#N)c3n2)n1 [compound 382]	> 100
C[C@@H](Cn1cnnn1)Oc1cncc(-c2ccc3ncn(-c4cc(C(F)F)ccc4C#N)c3n2)n1 [compound 384]	> 100
C[C@@H](Cn1cnnn1)Oc1cccc(-c2ccc3ncn(-c4cc(OC(F)F)ccc4C#N)c3n2)n1 [compound 385]	> 100
C[C@@H](Cn1cnnn1)Oc1cccc(-c2ccc3ncc(-c4nc(Cl)ccc4C#N)n3n2)c1 [compound 386]	< 10
C[C@@H](Cn1cnnn1)Oc1cccc(-c2ccc3nnc(-c4cc(F)ccc4C#N)n3n2)c1 [compound 387]	> 100
C[C@@H](Cn1cnnn1)Oc1cccc(-c2ccc3ncc(-c4nc(C(F)F)ccc4C#N)n3n2)c1 [compound 388]	< 10
CC(=O)c1ccc(C#N)c(-c2cnc3ccc(-c4cccc(O[C@@H](C)Cn5cnnn5)c4)nn23)n1 [compound 389]	10 to 100
